Measured values taken from ChEMBL document CHEMBL1137785, “Discovery of geranylgeranyltransferase-I inhibitors with novel scaffolds by the means of quantitative structure-activity relationship modeling, virtual screening, and experimental validation” (J Med Chem, 2009).

Experiment: Displacement of [3H]GGpp from GGTase1 expressed in Sf9 cells
Conditions: not given

pIC50	IC50	Compound
5.58	–	Cc1ccc(C(CC(N)=O)NC(=O)CC(=O)Nc2cc(-c3cccnc3)nn2-c2ccc(Cl)c(Cl)c2)cc1 (stereo not given)
6.23	–	Cc1ccc(C(CC(N)=O)NC(=O)CC[C@H](C)Nc2cc(-c3cccnc3)nn2-c2ccc(Cl)c(Cl)c2)cc1 (stereo not given in full)
4.68	–	Cc1ccc([C@@H](CC(N)=O)NC(=O)c2ccc(-c3cc(-c4cccnc4)nn3-c3ccc(Cl)c(Cl)c3)s2)cc1
4.86	–	Cc1ccc(C(CC(N)=O)NC(=O)CC(=O)COc2cc(-c3cccnc3)nn2-c2ccc(Cl)c(Cl)c2)cc1 (stereo not given)
4.43	–	Cc1ccc(C(CC(N)=O)NC(=O)COc2cc(-c3cccnc3)nn2-c2ccc(Cl)c(Cl)c2)cc1 (stereo not given)
7.17	–	Cc1ccc(C(CC(N)=O)NC(=O)CCCOc2c(CCCO)c(-c3cccnc3)nn2-c2ccc(Cl)c(Cl)c2)cc1 (stereo not given)
5.73	–	Cc1ccc(C(CC(=O)O)NC(=O)c2ccc(-c3cc(-c4cccnc4)nn3-c3ccc(Cl)c(Cl)c3)s2)cc1 (stereo not given)
4.3	–	Cc1ccc(C(CC(N)=O)NC(=O)C2CCCN(Cc3cc(-c4cccnc4)nn3-c3ccc(Cl)c(Cl)c3)C2)cc1 (stereo not given)
6.35	–	Cc1ccc(C(CC(N)=O)NC(=O)CCNCc2cc(-c3cccnc3)nn2-c2ccc(Cl)c(Cl)c2)cc1 (stereo not given)
6.27	–	CCN(C(=O)CCCOc1cc(-c2cccnc2)nn1-c1ccc(Cl)c(Cl)c1)C(CC(N)=O)c1ccc(C)cc1 (stereo not given)
6.21	–	NC(=O)CC(NC(=O)CCCOc1cc(-c2cccnc2)nn1-c1ccc(Cl)c(Cl)c1)c1ccc(-c2ccccc2)cc1 (stereo not given)
5.82	–	Cc1ccc(CCN(CC(N)=O)C(=O)CCCOc2cc(-c3cccnc3)nn2-c2ccc(Cl)c(Cl)c2)cc1
5.4	–	Cc1ccc(C(NC(N)=O)NC(=O)CCCOc2cc(-c3cccnc3)nn2-c2ccc(Cl)c(Cl)c2)cc1 (stereo not given)
7	–	COCCN(CCC(=O)NC(CC(N)=O)c1ccc(C)cc1)Cc1cc(-c2cccnc2)nn1-c1ccc(Cl)c(Cl)c1 (stereo not given)
5.23	–	Cc1ccc(C(CC(N)=O)NC(=O)CC(=O)CNc2cc(-c3cccnc3)nn2-c2ccc(Cl)c(Cl)c2)cc1 (stereo not given)
3.84	–	Cc1ccc([C@@H](CC(N)=O)NC(=O)c2ccc(-c3cc(-c4cccnc4)nn3-c3ccc(Cl)c(Cl)c3)cc2)cc1
5.7	–	CCN(CCCC(=O)NC(CC(N)=O)c1ccc(C)cc1)c1cc(-c2cccnc2)nn1-c1ccc(Cl)c(Cl)c1 (stereo not given)
6.32	–	NC(=O)CC(NC(=O)CCCNc1cc(-c2cccnc2)nn1-c1ccc(Cl)c(Cl)c1)c1cccnc1 (stereo not given)
5.97	–	Cc1ccc(C(NC(=O)CCCOc2cc(-c3cccnc3)nn2-c2ccc(Cl)c(Cl)c2)C(=N)N)cc1 (stereo not given)
7.55	–	CSCCCc1c(-c2cccnc2)nn(-c2ccc(Cl)c(Cl)c2)c1OCCCC(=O)NC(CC(N)=O)c1ccc(C)cc1 (stereo not given)
5.09	–	Cc1ccc(C(CC(N)=O)NC(=O)CCCN(CCN2CCOCC2)c2cc(-c3cccnc3)nn2-c2ccc(Cl)c(Cl)c2)cc1 (stereo not given)
4.53	–	Cc1ccc(CN(CC(N)=O)C(=O)CCCCc2cc(-c3cccnc3)nn2-c2ccc(Cl)c(Cl)c2)cc1
5.79	–	Cc1ccc(C(CC(N)=O)NC(=O)C[C@H](O)COc2cc(-c3cccnc3)nn2-c2ccc(Cl)c(Cl)c2)cc1 (stereo not given in full)
5.53	–	Cc1ccc(C(CC(N)=O)NC(=O)CCCCOc2cc(-c3cccnc3)nn2-c2ccc(Cl)c(Cl)c2)cc1 (stereo not given)
5.82	–	Cc1ccc(C(CC(N)=O)NC(=O)c2ccc(-c3cc(-c4cccnc4)nn3-c3ccc(Cl)c(Cl)c3)cc2)cc1 (stereo not given)
5.11	–	Cc1ccc(C(CO)NC(=O)c2ccc(-c3cc(-c4cccnc4)nn3-c3ccc(Cl)c(Cl)c3)s2)cc1 (stereo not given)
4.35	–	Cc1ccc(C(CC(N)=O)NC(=O)c2ccc(-c3cc(-c4cccnc4)nn3-c3ccc(Cl)c(Cl)c3)s2)cc1 (stereo not given)

The next lines start with the molecule.

Compound	pIC50	IC50
COc1ccc(OCc2nnc(SCC(=O)Nc3ccc(C(N)=O)cc3)n2CCc2ccccc2)cc1	5.56	–
NC(=O)CC(NC(=O)c1ccc(-c2cc(-c3cccnc3)nn2-c2ccc(Cl)c(Cl)c2)s1)OCc1ccccc1 (stereo not given)	5.57	–
Cc1ccc(-c2nn(-c3ccccc3)cc2/C=N/NC(=O)C(=O)Nc2cc(Cl)ccc2Cl)cc1	4.43	–
CCCn1c(COc2ccc(C(C)Cc3ccccc3)cc2)nnc1SCC(=O)Nc1ccc(C(N)=O)cc1 (stereo not given)	4.19	–
NC(=O)CC(NC(=O)c1ccc(-c2cc(-c3cccnc3)nn2-c2ccc(Cl)c(Cl)c2)cc1)OCc1ccccc1 (stereo not given)	5.63	–
Cc1ccc(C(=O)N/C(=C\c2ccc(-c3ccc(Cl)c(Cl)c3)o2)C(=O)NCc2ccccc2)cc1	5.56	–
Cc1ccc(-c2cc(NCNCCCCS)ccc2C(=O)N[C@@H](CCC(C)C)C(=O)O)cc1	6.68	–
Cc1ccc(C(CC(N)=O)NC(=O)c2ccc(-c3cc(-c4cccnc4)nn3CCc3ccccc3)s2)cc1 (stereo not given)	4.02	–
CC(C)c1ccc(N(CC(=O)NCc2ccccc2)C(=O)Cn2nnc(-c3ccc(Cl)cc3)n2)cc1	4.19	–
Cc1ccc(C(CC(N)=O)NC(=O)[C@H]2C[C@H](c3cc(-c4cccnc4)nn3-c3ccc(Cl)c(Cl)c3)C2(C)C)cc1 (stereo not given in full)	5.94	–
O=C(O)CNC(=O)[C@H](Cc1c[nH]c2ccccc12)NC(=O)Cn1c(=O)[nH]c2ccccc2c1=O	–	> 100 µM
CCCOc1ccc(-c2nn(-c3ccccc3)cc2/C=N/NC(=O)CNC(=O)c2cccc(Cl)c2)cc1	4.02	–
COc1ccccc1-c1nnc(SCC(=O)Nc2ccc(C(N)=O)cc2)n1CCc1ccccc1	5.56	–
NC(=O)CN(CC1CCCCC1)C(=O)CCCOc1cc(-c2cccnc2)nn1-c1ccc(Cl)c(Cl)c1	5.84	–
Cc1ccc(C(NC(=O)c2ccc(-c3cc(-c4cccnc4)nn3-c3ccc(Cl)c(Cl)c3)s2)C(O)C(N)=O)cc1 (stereo not given)	5.08	–
O=C(O)C[C@H](Cc1c[nH]c2ccccc12)NC(=O)Cn1c(=O)[nH]c2ccccc2c1=O	–	> 100 µM
CCCC[C@H](NC(=O)c1ccc(NCNCCCCS)cc1-c1ccccc1)C(=O)O	7.14	–
O=C(Cn1c(=O)n(Cc2c[nH]cn2)c(=O)c2ccccc21)N[C@@H](Cc1ccccc1)C(=O)O	5.77	–
CCCC(C(=O)NCc1ccccc1)N(Cc1ccccc1Cl)C(=O)Cn1nnc(-c2ccc(Cl)cc2)n1 (stereo not given)	4.43	–
Cc1ccc(C(=O)N/C(=C/c2ccc(-c3ccc(Cl)c(Cl)c3)o2)C(=O)NCc2ccccc2)cc1	3.84	–

Same assay, conditions: read-out: IC50

IC50	Compound
43 µM	CCc1ccc(OCc2nnc(SCC(=O)Nc3ccc(C(N)=O)cc3)n2C(C)c2ccccc2)cc1 (stereo not given)
35 µM	CC[C@@H](C(=O)NCc1ccccc1)N(Cc1ccccc1Cl)C(=O)Cn1nnc(-c2ccc(C)cc2)n1
8 µM	Cc1ccc(C(=O)N/C(=C/c2ccc(-c3ccc(Cl)c(Cl)c3)o2)C(=O)NCc2ccccc2)cc1
